Source: patent publication US20060094676A1, “Compositions and methods for treating cancer using compositions comprising an inhibitor of endothelin receptor activity” (priority 2004, published 2006)

Legend:
7 melanoma lines = test: MTS assay, number of viable cells; assay type: cell-based; settings: 100 μM BQ788; all 7 melanoma lines tested
kidney cells = test: MTS assay, number of viable cells; assay type: cell-based; settings: high concentrations of BQ788
HIF-1α = test: Real-time RT-PCR of HIF-1α transcripts; assay type: cell-based, human; settings: melanoma cell lines treated with BQ788; amplitude correlates with VEGF changes
Experimental: (§1) Equal amounts of RNA from cells that were treated with BQ788 for 3 days were subjected to real-time RT-PCR analysis for the detection VEGF (A), HIF-1α (B) and Gravin (C) transcripts. Differences in expression levels are shown as x fold change and are statistically significant (p<0.05) unless a column in marked as non significant (N.S.). Sections of two representative tumors derived from a human melanoma cell line grown in nude mice and injected either with vehicle (D) or BQ788 (E) were stained with anti CD-31 to highlight blood vessels (brown staining, Lahav et al, 1999).
(§2) RNA was prepared from the different cell lines in different culture conditions using SV total RNA isolation kit (Promega) according to the manufacturer's protocol. For each sample RNA concentration was determined using the total RNA nano procedure of an Agilent bioanalyzer. A stock of SK-MEL-28 RNA aliquots was prepared containing 10, 20, 50, 100, 200, 500 and 1000 ng/12 μl for use as a standard curve and kept in −80° C. For the experimental unknown samples, a stock of 100 ng/12 μl RNA aliquots from each cell line and condition was prepared and stored at −80° C. […] A standard curve of Ct versus RNA quantity was established and accordingly the Ct in the unknown samples was correlated to quantity of transcript. […]

GRAVIN = test: Real-time RT-PCR of Gravin transcripts; assay type: cell-based, human; settings: melanoma cell lines treated with BQ788
Experimental: as §1, §2

caspase 3 = test: Western blot for caspase 3 activation; assay type: cell-based; settings: BQ788-treated melanoma cells; data not shown
Excerpt: Down-regulation of BCL2-A1 results in caspase 9 activation but not caspase 3 or 8 cleavage (Duriez, et al., A1 functions at the mitochondria to delay endothelial apoptosis in response to tumor necrosis factor, J. Biol. Chem., 275:18099-18107 (2000); Pagliari, et al., Macrophages require constitutive NF-kappaB activation to maintain A1 expression and mitochondrial homeostasis, Mol. Cell Biol., 20:8855-8865 (2000)). […] Whether caspase 6 activation occurs via reduction in BCL-2A1 expression or by alternative pathways remains to be determined.

## CCCC[C@@H](NC(=O)[C@@H](Cc1cn(C(=O)OC)c2ccccc12)NC(=O)[C@H](CC(C)(C)C)NC(=O)N1[C@H](C)CCC[C@@H]1C)C(=O)O [BQ788, N-cis-2,6-dimethylpiperidinocarbonyl-L-γ-methylleucyl-D-1-methoxycarbonyltrptophanyl-D-norleucine]
7 melanoma lines
  number of viable cells: very significant loss
Kidney cells
  number of kidney cells: not reduced
HIF-1α
  HIF-1α RNA expression levels: small but significant changes
GRAVIN
  GRAVIN expression: down-regulated
Caspase 3
  caspase 3 activation: did not reveal caspase 3 activation
